1 molecule from article PMC12844237, “A Novel Quinolone JH62 (E-2-(Tridec-4-en-1-yl)-quinolin-4(1H)-one) from Pseudomonas aeruginosa Exhibits Potent Anticancer Activity” (Microorganisms, 2025) can be followed below.

In data set [1] the test system is THLE-2: human liver epithelial cell lines. Briefly: WST-1 cell viability, THLE-2. It counts as cell-based. Conditions: THLE-2, non-cancer cell line. From the text: (§1) Different cells were utilized as follows: MEF: murine embryonic fibroblast (RRID: CVCL_L690); AML12: mouse liver cell lines (RRID: CVCL_0140); WI-38: human lung fibroblast cell lines (RRID: CVCL_0579); THLE-2: human liver epithelial cell lines (RRID: CVCL_3803); A549: human lung cancer cell lines (RRID: CVCL_0023); HEPG2: human liver cancer cell lines (RRID: CVCL_0027); HEP3B: human hepatoma cell lines (RRID: CVCL_0326); BxPC3: human pancreatic cancer cell lines (RRID: CVCL_0186); U87: human primary glioblastoma cell lines (RRID: CVCL_0022); DU145: human prostate cancer cell lines (RRID: CVCL_0105); MCF7: human breast cancer cell lines (RRID: CVCL_0031); HeLa: human cervical cancer cell lines (RRID: CVCL_0030); HCT116: human colon cancer cell lines (RRID: CVCL_0291). Cells were maintained in Dulbecco’s modified Eagle’s medium (DMEM, Gibco) supplemented with L-glutamine (Lonza) (2 mM), 10% fetal bovine serum (FBS, Hyclone), 1 × non-essential amino acids, and sodium pyruvate (1 mM). THLE-2 cells were maintained in THLE-2 Cell Complete Medium (Zhong Qiao Xin Zhou, Shanghai, China). Cells were incubated at 37 °C in a humidified incubator with 5% CO2. […]
(§2) Cell viability was assessed using the WST-1 assay, based on a previously reported method with slight modifications. […] Absorbance at OD450 was measured using a microplate reader (Synergy H1; BioTek Instruments, Winooski, VT, USA).

For data set [2], the system named is U87: human primary glioblastoma cell lines. Briefly: WST-1 cell viability, U87. Format: cell-based. Conditions: U87 (glioblastoma) cancer cell line.
Text: as §1, §2

In data set [3] the test system is MCF7: human breast cancer cell lines. Briefly: WST-1 cell viability, MCF7. It counts as cell-based. Conditions: MCF7 (breast) cancer cell line.
Text: as §1, §2
Background: Formazan colour is commonly taken as a measure of viable cells.

Data set [4] concerns HCT116: human colon cancer cell lines. In words: WST-1 cell viability, HCT116. The following applies: HCT-116, HCT116 (colon) cancer cell line. Format: cell-based.
Text: as §1, §2

In data set [5] the test system is A549 lung cancer cell colonies. In words: Cell colony formation assay. Conditions: compared to the control group. Format: cell-based, human. The text has this:
The cell colony formation assay, an in vitro method used to evaluate the proliferative capacity of cancer cells, was employed.

Data set [6] concerns A549 cells. Briefly: Mitochondria JC-1 staining (mitochondrial membrane potential). It counts as cell-based, human. Conditions: A549, 25 μM, red fluorescence decreasing within 2–3 h, lowest by 4 h. Here is the method: Mitochondrial membrane potential and mitochondria localization were assessed by JC-1 and MitoTracker staining based on previously published methods. A549 cells were cultured at 37 °C and 5% CO2 in Dulbecco’s modified Eagle’s medium (DMEM), supplemented with 10% heat-inactivated FBS (Thermo Fisher Scientific, Waltham, MA, USA) and L-Glutamine (Thermo Fisher Scientific, Waltham, MA, USA) (2 mM). An aliquot of 1 mL of JH62 (25 μM) solution was added to the cell cultures. […] Cells were washed with dilution buffer, and photos were taken using a microscope. For MitoTracker staining, cells grown on 12 mm diameter round glass coverslips in 24-well plates were incubated with MitoTracker Red diluted 1:2000 or 1:20,000 from a stock solution (1 mM) in culture medium for 45 min at 37 °C. Cells were then washed with PBS and fixed with ice-cold 3.2% paraformaldehyde in PBS for 20 min at room temperature. After washing, coverslips were mounted on glass slides using an appropriate mounting medium. […]
In cancer cells, mitochondria serve as central organelles for energy production and survival, critically influencing cell viability, immune evasion, tumor progression, and therapy resistance. […] We used the potential-sensitive fluorescent probe JC-1, which emits green fluorescence as a monomer at low concentrations and forms red-fluorescent aggregates in mitochondria with intact ΔΨm.

Data set [7] deals with A549 cells. Briefly: Chromosome staining experiment. It counts as cell-based, human. The following applies: A549, 5 μM DOX or 25 μM JH62 for 6 h. On the procedure:
Metaphase chromosome spreads were prepared from A549 cells. Briefly, A549 cells were cultured. After treatment with JH62 or DOX, cells were incubated with Colcemid (Gibco BRL; 0.2 μg/mL final concentration) for 2 h to arrest cells in metaphase. Cells were then subjected to hypotonic treatment in KCl (0.075 M) at 37 °C for 5 min, and fixed by repeated washing with ice-cold freshly prepared 3:1 (vol/vol) methanol:acetic acid. Chromosome spreads were prepared on premarked glass slides using the “drop-cryo” protocol. The chromosome suspension was dropped onto a slide. This was followed by adding three drops of 45% acetic acid and placing a coverslip over the suspension. The slide was then inverted and placed on dry ice for 15 min. The spreads were postfixed in 2.5% glutaraldehyde in cacodylate buffer (pH 7.4, 75 mM) for 15 min and washed with cacodylate buffer (0.1 M). The chromosomes were stained with Vista Green DNA dye (Cell Biolabs, Singapore). After staining, the preparations were washed in water for 5, 10, and 15 min, then dehydrated using a series of ethanol solutions as follows: 5 min in a 70% solution, 10 min in an 85% solution, and 15 min in 100% ethanol. Finally, slides were mounted with a permanent mounting medium, sealed, and analyzed by microscopy.

For the next data set, the system named is cancer cell lines. Briefly: WST-1 cell viability, panel of cancer cell lines. It counts as cell-based. The following applies: Homo sapiens; across the tested cancer cell lines. Here is the method:
Cell viability was assessed using the WST-1 assay, based on a previously reported method with slight modifications. Briefly, cells were seeded at 1 × 10^4 cells per well in 96-well plates and then treated with different doses of JH62 or DOX for 0–72 h. The cells used included non-cancer cells (MEF, AML12, WI-38, and THLE-2) and cancer cells (A549, HEPG2, HEP3B, BxPC3, U87, DU145, MCF7, HeLa, and HCT116). The WST-1 reagent (Roche, Shanghai, China) was added to each well (10% vol/vol final concentration), followed by incubation for 3 h at 37 °C. Absorbance at OD450 was measured using a microplate reader (Synergy H1; BioTek Instruments, Winooski, VT, USA).

Another data set has as its system A549 lung cancer cells. Briefly: Cell death inhibitor rescue (zVAD-fmk, Nec-1). It counts as cell-based, human. Conditions: A549, zVAD-fmk and Nec-1 individually or in combination. From the text: Therefore, we investigated whether zVAD-fmk and Nec-1 could attenuate JH62-induced cell death in A549 lung cancer cells.

The term IC50 denotes the point on the concentration scale where inhibition reaches its midpoint. `CCCCCCCC/C=C/CCCc1cc(=O)c2ccccc2[nH]1` [JH62, E-2-(tridec-4-en-1-yl)-quinolin-4(1H)-one]: the IC50 in [1] is 27.3 ± 4.9 µM; in [2] it was 10 ± 0.2 µM; in data set [3] it was 13.9 ± 1.3 µM; in data set [4] it was 8.6 ± 0.1 µM; in the data set on cancer cell lines, below 20 µM. Further, the “reduced the number of A549 lung cancer cell colonies” value in data set [5] (6.3 μM) was 34%; in data set [5] (12.5 μM), 71%. Moreover, the “mitochondrial membrane potential (JC-1 red fluorescence)” value in the data set on A549 cells [6] is “disrupted the mitochondrial membrane potential”. Further, in the data set on A549 cells [7], the chromosome morphology entry is recorded as “maintained normal morphology similar to the control”. For the same molecule, the “cell death type (reversal by zVAD-fmk and Nec-1)” value with A549 lung cancer cells is “not associated with apoptosis or necroptosis”.
